For 55 compounds, IC50 results are on record in PubChem BioAssay AID1159565 (GlaxoSmithKline (GSK), 2015).

SMILES strings stand for the structures. Active and inactive are the calls of the source. The rule behind the calls is not given here. Where only a bound is given, the exact number is not on record here.

The test system of the assay is T. cruzi-infected H9C2 cardiomyocytes, high-content imaging. Description: anti-T. cruzi activity in infected cardiomyocytes – imaging, H9C2 host cardiomyocytes, host toxicity (AID 1159565).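 Note: infected cells incubated 72 h after plating.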
[1] abbreviates: measured here: H9C2 host cell toxicity.
Setting [2] is: measured here: amastigotes per cell.

`COc1cnc2ccc(=O)n(CCN3CCC(NC(=O)Cc4ccc(Cl)c(Cl)c4)CC3)c2c1`: the IC50 (commonly the point on the concentration scale where inhibition reaches its midpoint) is 400 nM. Under setting [1], this compound registered an IC50 of 6300 nM. This compound showed an IC50 under setting [2] of 160 nM.
For `O=[N+]([O-])c1ccc(-c2nnn(-c3cccnc3)n2)o1`, the IC50 is > 50000 nM (inactive). Further, under setting [1], the half-inhibitory concentration (IC50) was found to be 6300 nM. The compound also displayed a 50% inhibitory concentration (IC50) under setting [2] of 63 nM.
The matching figures for `OC[C@@H](Nc1nccc(-c2c(-c3ccc(F)cc3)ncn2C2CCNCC2)n1)c1ccccc1`: 13000 nM, 2000 nM and 13000 nM.
On the same counts, the results for `c1ccc2c(CCOc3nccnc3-c3ccncc3)c[nH]c2c1` are 160 nM, over 50000 nM and 160 nM.
On the same counts, the results for `c1ccc(-c2nc(NC3CCCC3)c3ccccc3n2)nc1` are 790 nM, 500 nM and 2000 nM.
As to `Cn1cc(CN2CCN(c3ccc4c(c3)CCN(C(=O)[C@H]3C[C@@H]3c3ccccc3)CC4)CC2)cn1`, the 50% inhibitory concentration (IC50) was 3200 nM. For the same compound, the concentration for half-maximal inhibition (IC50) under setting [1] is 32000 nM. For the same compound, the 50% inhibitory concentration (IC50) under setting [2] came out at 790 nM.
Regarding `COc1cc2c(cc1OC)[C@H]1[C@@H](C)c3ccc(OC)c(OC)c3CN1CC2`, the IC50 was > 50000 nM (inactive). Under setting [1], this compound gave a 50% inhibitory concentration (IC50) of over 50000 nM. In addition, the IC50 under setting [2] was 20000 nM.
For `O=C(Nc1nc(-c2ccc(F)cc2)cs1)c1ccc([N+](=O)[O-])s1`, the 50% inhibitory concentration (IC50) was 250 nM. Besides, the IC50 under setting [1] is 4000 nM. This compound also displayed an IC50 under setting [2] of 160 nM.
On the same counts, the results for `Cc1cc(N(C)C)nc2ccc(Cc3cnc(N)nc3N)cc12` are 6300 nM, over 50000 nM and 3200 nM.
On the same counts, the results for `COc1ccc(CN2CCCCC2c2nc(-c3cccnc3)no2)cc1` (stereo not given) are 790 nM, over 50000 nM and 630 nM.
In the case of `COc1ccc(C(=O)[C@H]2C[C@@H]2CN(Cc2ccccn2)Cc2ccccn2)cc1`, the 50% inhibitory concentration (IC50) was 1600 nM. Further, the concentration for half-maximal inhibition (IC50) under setting [1] came out at 25000 nM. The compound also returned a half-maximal inhibitory concentration (IC50) under setting [2] of 1000 nM.
The matching figures for `O=C(CCc1ccc(-c2ccccc2)o1)N1CCN(c2ccc(O)cc2)CC1`: 1300 nM, over 50000 nM and 790 nM.
The matching figures for `O=C(CN(c1cccc(C(F)(F)F)c1)S(=O)(=O)c1ccc(Cl)cc1)NCc1ccc(F)c(F)c1`: 790 nM, over 50000 nM and 500 nM.
In the case of `CC(CNS(=O)(=O)c1ccc(OC(F)F)cc1)c1ccc(NC(=O)c2ccncc2)cc1` (stereo not given), the half-inhibitory concentration (IC50) was 100 nM. Also, the IC50 under setting [1] is over 50000 nM. Under setting [2], this compound had an IC50 of 79 nM.
As for `CC(C)Nc1nccc(-c2c(-c3ccc(F)cc3)ncn2C2CCOCC2)n1`, the IC50 was 320 nM. The IC50 under setting [1] was over 50000 nM. The same compound showed an IC50 under setting [2] of 200 nM.
On the same counts, the results for `COc1ncc(-c2ccc3nccc(-c4ccncc4)c3c2)cc1NS(C)(=O)=O` are 25000 nM, 5000 nM and 13000 nM.
Consider `COc1ccc(C(C)(C)C)cc1S(=O)(=O)n1ccnc1`, for which the IC50 is 200 nM. Besides, under setting [1], the half-maximal inhibitory concentration (IC50) was over 50000 nM. Besides, the IC50 under setting [2] was 200 nM.
In the case of `COc1ccc(S(=O)(=O)NC(C)C)cc1Nc1ncc(-c2cccc(F)c2)cn1`, the IC50 is 400 nM. The same compound yielded a concentration for half-maximal inhibition (IC50) under setting [1] of over 50000 nM. This compound came in with a concentration for half-maximal inhibition (IC50) under setting [2] of 320 nM.
The matching figures for `O=C(CN(Cc1ccccn1)Cc1ccccn1)NCc1csc(-c2cccs2)n1`: 6300 nM, over 50000 nM and 2500 nM.
On the same counts, the results for `CC(c1ccc2c(c1)CCCC2)N(C)c1ncc2c(N)nc(N)nc2n1` (stereo not given) are 32 nM, 10000 nM and 10 nM.
On the same counts, the results for `O=C(NCc1ccc(-n2cccc2)cc1)c1nc(Cn2ccc([N+](=O)[O-])n2)no1` are 2500 nM, over 50000 nM and 1300 nM.
With `O=C(Nc1cccc(F)c1)N1CCC(Oc2cccc(-c3cccnc3)c2)CC1`, the 50% inhibitory concentration (IC50) is 630 nM. Under setting [1], this compound gave a concentration for half-maximal inhibition (IC50) of 25000 nM. The same compound returned an IC50 under setting [2] of 500 nM.
Consider `COCc1cc(Nc2ccc(Cl)cc2)nc(-c2ccccn2)n1`, for which the IC50 was 5000 nM. In addition, the half-inhibitory concentration (IC50) under setting [1] stood at 1300 nM. Moreover, the half-inhibitory concentration (IC50) under setting [2] worked out at 2500 nM.
The matching figures for `CN1CCC(N(C)c2nccc(N3CCN(C(=O)c4cccc(-c5cccnc5)c4)CC3)n2)CC1`: 1300 nM, 7900 nM and 1000 nM.
The matching figures for `COc1ccc(-c2cnc(NC(=O)c3cc(-c4ccccn4)n[nH]3)n2C)cc1`: 5000 nM, over 50000 nM and 4000 nM.
The matching figures for `O=c1cc(NCCCNC2CCOc3c(I)cc(Cl)cc32)[nH]c2ccccc12` (stereo not given): 320 nM, 25000 nM and 160 nM.
Take `Oc1c(-c2n[nH]c(CCc3ccccc3)n2)ncc2cccnc12`: the 50% inhibitory concentration (IC50) was 200 nM. The IC50 under setting [1] was determined as 16000 nM. In addition, under setting [2], the IC50 is 200 nM.
Consider `NS(=O)(=O)c1ccc(CNC(=O)c2ccc([N+](=O)[O-])s2)cc1`, for which the IC50 was 5000 nM. Further, the IC50 under setting [1] amounted to 20000 nM. In addition, the IC50 under setting [2] is 790 nM.
On the same counts, the results for `CC(C(=O)Nc1ccccc1F)N(C)CC(=O)Nc1cccc2ccccc12` (stereo not given) are 500 nM, over 50000 nM and 320 nM.
`Cc1c(C(C)NC(=O)Nc2cccc(Cl)c2)sc2ncnn12` (stereo not given): the IC50 is 200 nM. Further, the IC50 under setting [1] is over 50000 nM. Under setting [2], the IC50 was found to be 160 nM.
The matching figures for `Cc1cc(C)nc(N2CCC(N(Cc3cccnc3)C(=O)c3cccc(C#N)c3)CC2)n1`: 320 nM, over 50000 nM and 400 nM.
On the same counts, the results for `COc1cc(Cl)c(C)cc1NC(=O)c1ccc([N+](=O)[O-])s1` are 630 nM, 2500 nM and 500 nM.
The matching figures for `O=c1ccn(-c2ccc([N+](=O)[O-])cc2Cl)c2ccc(F)cc12`: 4000 nM, over 50000 nM and 1300 nM.
For `CCCCn1c(=O)c2c(N)onc2n(CCCC)c1=O`, the IC50 was 32000 nM. The same compound returned a 50% inhibitory concentration (IC50) under setting [1] of 25000 nM. Moreover, under setting [2], the IC50 amounted to 25000 nM.
Take `COc1ccc2ncc(=O)n(CCN3CCOC(CNCc4ccc(C(F)(F)F)cc4F)C3)c2n1` (stereo not given): the IC50 is 1600 nM. For the same compound, the half-inhibitory concentration (IC50) under setting [1] is over 50000 nM. Also, under setting [2], the concentration for half-maximal inhibition (IC50) stood at 630 nM.
On the same counts, the results for `Cc1ccc2onc(Nc3ccnc(Nc4cccc(S(C)(=O)=O)c4)n3)c2c1` are 630 nM, 5000 nM and 400 nM.
The matching figures for `Cn1cncc1CN1CCC2(CC1)COC(Cc1ccccc1)C2` (stereo not given): 500 nM, over 50000 nM and 320 nM.
On the same counts, the results for `Nc1nc(-c2ccccn2)nc(N)c1Cc1c(F)cccc1Cl` are 2000 nM, 1300 nM and 1600 nM.
In the case of `O=C(NCCc1nc(-c2ccc(F)c(F)c2)n[nH]1)C1CCCCC1`, the IC50 was 2500 nM. In addition, under setting [1], the IC50 is over 50000 nM. The compound further gave a half-inhibitory concentration (IC50) under setting [2] of 1600 nM.
On the same counts, the results for `COc1ccc(-c2csc(NC(=O)c3ccc([N+](=O)[O-])s3)n2)cc1OC` are 100 nM, 6300 nM and 79 nM.
As for `O=C(c1cc2cc(Cl)ccc2[nH]1)N1CCCCC1c1cccnc1` (stereo not given), the IC50 was 130 nM. Also, the IC50 under setting [1] turned out to be 32000 nM. The same compound gave an IC50 under setting [2] of 130 nM.
With `COc1ccc(-c2nc3ccncc3c(=O)n2CCOc2ccccc2)cc1`, the IC50 was 400 nM. Moreover, the IC50 under setting [1] was over 50000 nM. The compound further came in with an IC50 under setting [2] of 400 nM.
On to `CC(C)n1c(-c2nonc2N)nc2cccc(OCCN3CCCC3)c21`, for which the 50% inhibitory concentration (IC50) is 16000 nM. Moreover, the IC50 under setting [1] was 32000 nM. The compound further returned an IC50 under setting [2] of 25000 nM.
On the same counts, the results for `O=C(c1cccc(Nc2ncc(-c3ccc4c(c3)OCO4)cn2)c1)N1CCSC1` are 250 nM, 1000 nM and 200 nM.
On the same counts, the results for `CNc1c(C(N)=O)c(-c2ccc3scnc3c2)nn1CC(F)(F)F` are 250 nM, over 50000 nM and 160 nM.
As to `Cc1cc(Nc2cc(C3CC3)[nH]n2)nc(N2CCCC2)n1`, the IC50 is 100 nM. Under setting [1], this compound showed an IC50 of 250 nM. Further, the IC50 under setting [2] is 79 nM.
On the same counts, the results for `O=C(Nc1nc2ccccc2[nH]1)c1ccc2nc[nH]c2c1` are > 50000 nM (inactive), over 50000 nM and 50000 nM.
The matching figures for `N#Cc1cccc(CN2CCC(c3nc(-c4ccc(C(F)(F)F)nc4)no3)CC2)c1`: 2000 nM, over 50000 nM and 2500 nM.
The matching figures for `CN(Cc1nc2ccc(C(=O)NCC3CCCCC3)cc2[nH]1)C1CCCc2cccnc21` (stereo not given): 630 nM, 5000 nM and 320 nM.
For `O=C(CSc1nnc2ccc(-c3ccc(F)cc3)nn12)N1CCCCC1`, the IC50 is 2000 nM. The compound also displayed an IC50 under setting [1] of over 50000 nM. Under setting [2], this compound gave an IC50 of 1000 nM.
On the same counts, the results for `COc1ccc(S(=O)(=O)Nc2ccccc2OC)cc1NC(=O)CCCc1c[nH]c2ccccc12` are 1300 nM, over 50000 nM and 1000 nM.
For `Cc1nc2nc(C)c(Cc3ccc(C(C)C)cc3)c(=O)n2[nH]1`, the IC50 was 790 nM. The compound also showed an IC50 under setting [1] of over 50000 nM. The same compound showed an IC50 under setting [2] of 250 nM.
On the same counts, the results for `C=CCN(Cc1cccs1)C(=O)CSc1nnc(-c2ccc3c(c2)OCO3)o1` are 630 nM, over 50000 nM and 500 nM.
For `N#Cc1cccc(Cc2cc(Nc3cc(C4CC4)[nH]n3)nc(N3CC[C@H]3C(N)=O)n2)c1`, the 50% inhibitory concentration (IC50) is 4000 nM. The IC50 under setting [1] is 4 nM. In addition, the IC50 under setting [2] came to 1000 nM.
As for `CS(=O)(=O)c1ccc(CC(=O)Nc2nc(-c3ccc(Cl)s3)cs2)cc1`, the 50% inhibitory concentration (IC50) is 320 nM. The compound further displayed an IC50 under setting [1] of 16000 nM. The same compound yielded an IC50 under setting [2] of 400 nM.
